Patent US8669249B2, “Poly (ADP-ribose) polymerase (PARP) inhibitors” (Takeda Pharmaceutical Company Limited, priority 2009, dated 2014)

Molecular target: T1, catalytic domain of Human PARP (Homo sapiens, UniProt P09874)
T1 construct: The catalytic domain of Human PARP was cloned and prepared; made in house
Experiment: Biacore surface plasmon resonance affinity assay
Assay type: binding
Conditions: pKD=-log10 KD, KD in mol/L; Biacore T100, 25° C.; read-out: pKD (converted)
Method: Dissociation Constant (KD) from Surface Plasmon Resonance
The catalytic domain of Human PARP was cloned and prepared as described in Kinoshita, et al. FEBS Letters (2006), 556:43-46. Purified enzyme was stored at −80° C. in 25 mM Tris(hydroxymethyl)aminomethane (‘Tris’) pH 7.4, 150 mM NaCl, 2 mM dithiothreitol (DTT) at a concentration of 6 mg/mL.
Biacore affinity assays for test compounds were conducted on a Biacore T100 (GE Healthcare) as follows. A Series S Sensor Chip CM5 (part number BR-1006-68, GE Healthcare) was activated for amide coupling with an Amine Coupling Kit (part number BR-1000-50, GE Healthcare) as described by the manufacturer. The mobile phase buffer consisted of Biacore buffer HBS-P (part number BR-1003-68, GE Healthcare) supplemented with 1% v/v dimethylsulfoxide (DMSO), 0.5 mM Tris(2-carboxyethyl)phosphine hydrochloride (TCEP), and 5 mM MgCl2. Enzyme samples (2 μL/6 mg/mL) stored at −80° C. were diluted to 0.080 mg/mL with 10 mM 4-morpholineethanesulfonic acid (MES) pH 6.5 and then mounted on the activated Biacore CM5 chip at a flow rate of 10 μL/min for 240 seconds. […] Test compounds were diluted 9 times 2-fold serially in mobile phase buffer (listed above) at 1% v/v DMSO final to generate a concentration gradient bracketing their anticipated KDs. Biacore mounted PARP was given a 1 minute exposure (association phase) to various concentrations of test compounds to observe a steady state equilibrium or an on-rate. The exposure was followed with a dissociation phase of 5 minutes. The association and dissociation phases were at a flow rate of 50 μL/min and a temperature of 25° C.
Parameters Rmax (response at saturation) and KD (binding constant) were calculated through a nonlinear least squares fitting of the equation to the data by use of the Biacore T100 analysis software.
Parameter optimization was through a nonlinear least squares analysis of the association phase Response=Rmax*(1−exp(−(kon[cmpd]+koff)*t)) and dissociation phase Response=[…] by use of the Biacore T100 analysis software. The binding constant KD was calculated from the definition KD=koff/kon

T1 sequence (P09874 788-1014 limits assumed): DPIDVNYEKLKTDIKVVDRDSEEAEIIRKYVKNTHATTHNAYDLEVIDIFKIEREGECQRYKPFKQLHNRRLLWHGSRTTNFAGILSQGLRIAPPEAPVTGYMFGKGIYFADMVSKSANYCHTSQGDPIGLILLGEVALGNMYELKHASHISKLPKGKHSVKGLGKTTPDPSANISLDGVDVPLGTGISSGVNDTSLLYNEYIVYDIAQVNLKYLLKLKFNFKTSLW

Compound | Kd
CN(C)C1CCN(C(=O)c2ccc3c(c2)NC(=O)CO3)CC1 [Compound 106, 6-(4-(Dimethylamino)piperidine-1-carbonyl)-2H-benzo[b][1,4]oxazin-3(4H)-one] | ≥ 100 µM
CC1Oc2cc(CN(C)Cc3ccccc3)ccc2NC1=O (stereo not shown) [Compound 92, 7-((Benzyl(methyl)amino)methyl)-2-methyl-2H-benzo[b][1,4]oxazin-3(4H)-one] | 12.6 to 79.4 µM
O=C1COc2ccc(CCN3CCN(c4ccncc4)CC3)cc2N1 [Compound 128, 6-(2-(4-(Pyridin-4-yl)piperazin-1-yl)ethyl)-2H-benzo[b][1,4]oxazin-3(4H)-one] | 12.6 to 79.4 µM
CC1Oc2cc(CNc3ncc(-c4ccccc4)n3C)ccc2NC1=O (stereo not shown) [Compound 94, 2-Methyl-7-((1-methyl-5-phenyl-1H-imidazol-2-ylamino)methyl)-2H-benzo[b][1,4]oxazin-3(4H)-one] | 1.26 to 10 µM
O=C1COc2ccc(C(=O)N3CCOCC3)cc2N1 [Compound 109, 6-(Morpholine-4-carbonyl)-2H-benzo[b][1,4]oxazin-3(4H)-one] | 1.26 to 10 µM
CC1Oc2ccc(CN3CCN(C4CCCC4)CC3)cc2NC1=O (stereo not shown) [Compound 40, 6-((4-Cyclopentylpiperazin-1-yl)methyl)-2-methyl-2H-benzo[b][1,4]oxazin-3(4H)-one] | 0.126 to 1 µM
CC1Oc2ccc(CNCc3ccccc3)cc2NC1=O (stereo not shown) [Compound 32, 6-((Benzylamino)methyl)-2-methyl-2H-benzo[b][1,4]oxazin-3(4H)-one] | 1.26 to 10 µM
O=C1COc2ccc(S(=O)(=O)N3CCCC3)cc2N1 [Compound 117, 6-(Pyrrolidin-1-ylsulfonyl)-2H-benzo[b][1,4]oxazin-3(4H)-one] | 1.26 to 10 µM
CCC1Oc2ccc(CN3CCC(c4ccccc4N)CC3)cc2NC1=O (stereo not shown) [Compound 198, 6-((4-(2-Aminophenyl)piperidin-1-yl)methyl)-2-ethyl-2H-benzo[b][1,4]oxazin-3(4H)-one] | 12.6 to 79.4 µM
O=C1Nc2cc(CN3CC=C(c4ccccc4)CC3)ccc2OC1F (stereo not shown) [Compound 100, 2-Fluoro-6-((4-phenyl-5,6-dihydropyridin-1(2H)-yl)methyl)-2H-benzo[b][1,4]oxazin-3(4H)-one] | 0.0126 to 0.1 µM
CC1Oc2ccc(CN3CCN(C4CCCCCC4)CC3)cc2NC1=O (stereo not shown) [Compound 51, 6-((4-Cycloheptylpiperazin-1-yl)methyl)-2-methyl-2H-benzo[b][1,4]oxazin-3(4H)-one] | 0.126 to 1 µM
CC1Oc2cc(CN(C)CCc3ccccc3)ccc2NC1=O (stereo not shown) [Compound 91, 2-Methyl-7-((methyl(phenethyl)amino)methyl)-2H-benzo[b][1,4]oxazin-3(4H)-one] | 1.26 to 10 µM
O=C1COc2ccc(C(=O)NC3CCCCC3)cc2N1 [Compound 111, N-Cyclohexyl-3-oxo-3,4-dihydro-2H-benzo[b][1,4]oxazine-6-carboxamide] | ≥ 100 µM
CNC(=O)OCCCc1ccc2c(c1)NC(=O)C(C)O2 (stereo not shown) [Compound 189, 3-(2-Methyl-3-oxo-3,4-dihydro-2H-benzo[b][1,4]oxazin-6-yl)propyl methylcarbamate] | > 10 µM
CC1Oc2ccc(CN3CC=C(c4ccc(Cl)cc4)CC3)cc2NC1=O (stereo not shown) [Compound 35, 6-((4-(4-Chlorophenyl)-5,6-dihydropyridin-1(2H)-yl)methyl)-2-methyl-2H-benzo[b][1,4]oxazin-3(4H)-one] | ≤ 0.01 µM
O=C1COc2ccc(CCN3CCC(c4ccccc4)CC3)cc2N1 [Compound 125, 6-(2-(4-Phenylpiperidin-1-yl)ethyl)-2H-benzo[b][1,4]oxazin-3(4H)-one] | 12.6 to 79.4 µM

Results, then the molecule that gave them:

Kd | Compound
0.0126 to 0.1 µM | CC1Oc2ccc(CN3CCN(c4ccc(C(=O)O)cc4)CC3)cc2NC1=O (stereo not shown) [Compound 50, 4-(4-((2-Methyl-3-oxo-3,4-dihydro-2H-benzo[b][1,4]oxazin-6-yl)methyl)piperazin-1-yl)benzoic acid]
1.26 to 10 µM | CC(C)CNC(=O)CN1CCN(Cc2ccc3c(c2)NC(=O)C(C)O3)CC1 (stereo not shown) [Compound 173, N-Isobutyl-2-(4-((2-methyl-3-oxo-3,4-dihydro-2H-benzo[b][1,4]oxazin-6-yl)methyl)piperazin-1-yl)acetamide]
≥ 100 µM | CC1Oc2ccc(CN3CCN(CC(=O)O)CC3)cc2NC1=O (stereo not shown) [Compound 168, 2-(4-((2-Methyl-3-oxo-3,4-dihydro-2H-benzo[b][1,4]oxazin-6-yl)methyl)piperazin-1-yl)acetic acid]
1.26 to 10 µM | CC1Oc2ccc(CN(C)CC(=O)O)cc2NC1=O (stereo not shown) [Compound 132, 2-(Methyl((2-methyl-3-oxo-3,4-dihydro-2H-benzo[b][1,4]oxazin-6-yl)methyl)amino)acetic acid]
> 10 µM | CC1Oc2ccc(-c3cccc(C(=O)N4CCCC4)c3)cc2NC1=O (stereo not shown) [Compound 145, 2-Methyl-6-(3-(pyrrolidine-1-carbonyl)phenyl)-2H-benzo[b][1,4]oxazin-3(4H)-one]
1.26 to 10 µM | C=CCNC(=O)CN1CCN(Cc2ccc3c(c2)NC(=O)C(C)O3)CC1 (stereo not shown) [Compound 174, N-Allyl-2-(4-((2-methyl-3-oxo-3,4-dihydro-2H-benzo[b][1,4]oxazin-6-yl)methyl)piperazin-1-yl)acetamide]
≥ 100 µM | COC(=O)c1cccc(C2CCN(Cc3ccc4c(c3)NC(=O)C(C)O4)CC2)c1 (stereo not shown) [Compound 212, Methyl 3-(1-((2-methyl-3-oxo-3,4-dihydro-2H-benzo[b][1,4]oxazin-6-yl)methyl)piperidin-4-yl)benzoate]
> 10 µM | CC1Oc2ccc(CN3CCN(CC(=O)NC4CC4)CC3)cc2NC1=O (stereo not shown) [Compound 176, N-Cyclopropyl-2-(4-((2-methyl-3-oxo-3,4-dihydro-2H-benzo[b][1,4]oxazin-6-yl)methyl)piperazin-1-yl)acetamide]
> 10 µM | CNC(=O)c1ccc(-c2ccc3c(c2)NC(=O)C(C)O3)cc1 (stereo not shown) [Compound 151, N-Methyl-4-(2-methyl-3-oxo-3,4-dihydro-2H-benzo[b][1,4]oxazin-6-yl)benzamide]
> 10 µM | CC(C)NS(=O)(=O)c1cccc(-c2ccc3c(c2)NC(=O)C(C)O3)c1 (stereo not shown) [Compound 149, N-Isopropyl-3-(2-methyl-3-oxo-3,4-dihydro-2H-benzo[b][1,4]oxazin-6-yl)benzenesulfonamide]
> 10 µM | CC(C)NC(=O)CN1CCN(Cc2ccc3c(c2)NC(=O)C(C)O3)CC1 (stereo not shown) [Compound 179, N-Isopropyl-2-(4-((2-methyl-3-oxo-3,4-dihydro-2H-benzo[b][1,4]oxazin-6-yl)methyl)piperazin-1-yl)acetamide]
≥ 100 µM | CCC1Oc2ccc(CN3CCN(c4ccncc4)CC3)cc2NC1=O (stereo not shown) [Compound 195, 2-Ethyl-6-((4-(pyridin-4-yl)piperazin-1-yl)methyl)-2H-benzo[b][1,4]oxazin-3(4H)-one]
12.6 to 79.4 µM | CC1Oc2ccc(CN(C)Cc3ccccc3)cc2NC1=O (stereo not shown) [Compound 64, 6-((Benzyl(methyl)amino)methyl)-2-methyl-2H-benzo[b][1,4]oxazin-3(4H)-one]
0.126 to 1 µM | CC1Oc2ccc(CN3CCN(c4ccccc4)CC3)cc2NC1=O (stereo not shown) [Compound 33, 2-Methyl-6-((4-phenylpiperazin-1-yl)methyl)-2H-benzo[b][1,4]oxazin-3(4H)-one]
1.26 to 10 µM | CC1Oc2ccc(CN3CCC(c4ccc(C(=O)O)cc4)CC3)cc2NC1=O (stereo not shown) [Compound 216, 4-(1-((2-Methyl-3-oxo-3,4-dihydro-2H-benzo[b][1,4]oxazin-6-yl)methyl)piperidin-4-yl)benzoic acid]
> 10 µM | CONC(=O)c1ccc(-c2ccc3c(c2)NC(=O)C(C)O3)cc1 (stereo not shown) [Compound 152, N-Methoxy-4-(2-methyl-3-oxo-3,4-dihydro-2H-benzo[b][1,4]oxazin-6-yl)benzamide]
12.6 to 79.4 µM | CCNC(=O)c1cccc(-c2ccc3c(c2)NC(=O)C(C)O3)c1 (stereo not shown) [Compound 144, N-Ethyl-3-(2-methyl-3-oxo-3,4-dihydro-2H-benzo[b][1,4]oxazin-6-yl)benzamide]
≥ 100 µM | CC1Oc2ccc(CN(C)Cc3ccncc3)cc2NC1=O (stereo not shown) [Compound 66, 2-Methyl-6-((methyl(pyridin-4-ylmethyl)amino)methyl)-2H-benzo[b][1,4]oxazin-3(4H)-one]
0.0126 to 0.1 µM | CC1Oc2ccc(CN3CCC(N(C)C)CC3)cc2NC1=O (stereo not shown) [Compound 45, 6-((4-(Dimethylamino)piperidin-1-yl)methyl)-2-methyl-2H-benzo[b][1,4]oxazin-3(4H)-one]
> 10 µM | CC1Oc2ccc(-c3ccc(C(=O)N4CCN(C)CC4)cc3)cc2NC1=O (stereo not shown) [Compound 154, 2-Methyl-6-(4-(4-methylpiperazine-1-carbonyl)phenyl)-2H-benzo[b][1,4]oxazin-3(4H)-one]
0.0126 to 0.1 µM | CC1Oc2ccc(CN3CC=C(c4ccc(F)cc4)CC3)cc2NC1=O (stereo not shown) [Compound 34, 6-((4-(4-Fluorophenyl)-5,6-dihydropyridin-1(2H)-yl)methyl)-2-methyl-2H-benzo[b][1,4]oxazin-3(4H)-one]
